Laboratory results published in patent publication US8614223B2, “Pyrimidine hydroxy amide compounds as protein deacetylase inhibitors and methods of use thereof” (Acetylon Pharmaceuticals, Inc., priority 2010, dated 2013).

Experiments:
HDAC6 = HDAC6 (Homo sapiens (Human), UniProt Q9UBN7); details: read-out: HDAC6 IC50
HDAC1 = HDAC1 (Homo sapiens (Human), UniProt Q13547); assay: HDAC enzyme assay, HDAC1; details: for HDAC1 fold over HDAC6 IC50 (selectivity for HDAC6): ratio HDAC1/HDAC6; for IC50: read-out: HDAC1 IC50
HDAC2 = HDAC2 (Homo sapiens (Human), UniProt Q92769); assay: HDAC enzyme assay, HDAC2; details: for HDAC2 fold over HDAC6 IC50 (selectivity for HDAC6): ratio HDAC2/HDAC6; for IC50: read-out: HDAC2 IC50
HDAC3 = HDAC3 (Homo sapiens (Human), UniProt O15379); assay: HDAC enzyme assay, HDAC3; details: for HDAC3 fold over HDAC6 IC50 (selectivity for HDAC6): ratio HDAC3/HDAC6; for IC50: read-out: HDAC3 IC50
Chain of HDAC3 (O15379 whole entry): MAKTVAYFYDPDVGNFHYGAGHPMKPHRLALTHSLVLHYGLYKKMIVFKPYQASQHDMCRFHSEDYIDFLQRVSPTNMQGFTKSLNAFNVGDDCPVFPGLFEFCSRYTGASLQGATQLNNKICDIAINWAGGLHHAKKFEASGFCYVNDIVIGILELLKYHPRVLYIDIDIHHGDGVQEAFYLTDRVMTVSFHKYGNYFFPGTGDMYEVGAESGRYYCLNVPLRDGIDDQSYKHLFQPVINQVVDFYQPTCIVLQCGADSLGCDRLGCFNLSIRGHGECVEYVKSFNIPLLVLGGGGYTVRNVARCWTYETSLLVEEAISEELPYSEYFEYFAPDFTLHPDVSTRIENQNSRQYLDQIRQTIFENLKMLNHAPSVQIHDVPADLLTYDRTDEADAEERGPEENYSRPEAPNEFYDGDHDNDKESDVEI
Chain of HDAC3 (Q9Y618 395-489 partner): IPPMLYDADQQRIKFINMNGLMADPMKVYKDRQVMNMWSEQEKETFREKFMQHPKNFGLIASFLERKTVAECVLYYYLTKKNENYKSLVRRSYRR

Chain of HDAC1 (Q13547 whole entry): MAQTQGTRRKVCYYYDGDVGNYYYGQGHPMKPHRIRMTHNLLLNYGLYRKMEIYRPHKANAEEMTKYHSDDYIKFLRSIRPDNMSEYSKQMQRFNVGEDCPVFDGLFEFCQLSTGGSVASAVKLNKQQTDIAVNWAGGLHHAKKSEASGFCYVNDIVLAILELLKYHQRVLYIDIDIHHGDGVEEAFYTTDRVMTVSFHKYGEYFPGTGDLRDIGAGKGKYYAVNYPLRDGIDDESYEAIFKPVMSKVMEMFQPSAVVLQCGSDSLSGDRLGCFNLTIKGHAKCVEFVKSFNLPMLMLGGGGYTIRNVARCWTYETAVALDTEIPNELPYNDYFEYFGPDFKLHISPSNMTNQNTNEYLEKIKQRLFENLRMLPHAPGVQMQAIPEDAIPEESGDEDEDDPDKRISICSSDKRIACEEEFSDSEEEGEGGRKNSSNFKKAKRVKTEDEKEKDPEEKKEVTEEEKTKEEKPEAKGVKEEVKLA
Chain of HDAC2 (Q92769 whole entry): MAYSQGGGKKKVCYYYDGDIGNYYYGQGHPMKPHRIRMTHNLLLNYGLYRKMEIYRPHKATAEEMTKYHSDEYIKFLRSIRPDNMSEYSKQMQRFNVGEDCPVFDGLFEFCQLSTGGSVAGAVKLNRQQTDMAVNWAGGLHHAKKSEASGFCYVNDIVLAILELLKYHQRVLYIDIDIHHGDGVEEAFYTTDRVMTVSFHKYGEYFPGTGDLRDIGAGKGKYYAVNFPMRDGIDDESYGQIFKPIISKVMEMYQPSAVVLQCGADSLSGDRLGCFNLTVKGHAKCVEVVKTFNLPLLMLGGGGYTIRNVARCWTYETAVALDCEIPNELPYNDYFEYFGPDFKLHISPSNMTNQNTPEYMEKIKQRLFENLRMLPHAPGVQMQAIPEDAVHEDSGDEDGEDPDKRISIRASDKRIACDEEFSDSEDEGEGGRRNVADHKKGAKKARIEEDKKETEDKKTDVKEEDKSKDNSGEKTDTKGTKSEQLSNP
Chain of HDAC6 (Q9UBN7 whole entry): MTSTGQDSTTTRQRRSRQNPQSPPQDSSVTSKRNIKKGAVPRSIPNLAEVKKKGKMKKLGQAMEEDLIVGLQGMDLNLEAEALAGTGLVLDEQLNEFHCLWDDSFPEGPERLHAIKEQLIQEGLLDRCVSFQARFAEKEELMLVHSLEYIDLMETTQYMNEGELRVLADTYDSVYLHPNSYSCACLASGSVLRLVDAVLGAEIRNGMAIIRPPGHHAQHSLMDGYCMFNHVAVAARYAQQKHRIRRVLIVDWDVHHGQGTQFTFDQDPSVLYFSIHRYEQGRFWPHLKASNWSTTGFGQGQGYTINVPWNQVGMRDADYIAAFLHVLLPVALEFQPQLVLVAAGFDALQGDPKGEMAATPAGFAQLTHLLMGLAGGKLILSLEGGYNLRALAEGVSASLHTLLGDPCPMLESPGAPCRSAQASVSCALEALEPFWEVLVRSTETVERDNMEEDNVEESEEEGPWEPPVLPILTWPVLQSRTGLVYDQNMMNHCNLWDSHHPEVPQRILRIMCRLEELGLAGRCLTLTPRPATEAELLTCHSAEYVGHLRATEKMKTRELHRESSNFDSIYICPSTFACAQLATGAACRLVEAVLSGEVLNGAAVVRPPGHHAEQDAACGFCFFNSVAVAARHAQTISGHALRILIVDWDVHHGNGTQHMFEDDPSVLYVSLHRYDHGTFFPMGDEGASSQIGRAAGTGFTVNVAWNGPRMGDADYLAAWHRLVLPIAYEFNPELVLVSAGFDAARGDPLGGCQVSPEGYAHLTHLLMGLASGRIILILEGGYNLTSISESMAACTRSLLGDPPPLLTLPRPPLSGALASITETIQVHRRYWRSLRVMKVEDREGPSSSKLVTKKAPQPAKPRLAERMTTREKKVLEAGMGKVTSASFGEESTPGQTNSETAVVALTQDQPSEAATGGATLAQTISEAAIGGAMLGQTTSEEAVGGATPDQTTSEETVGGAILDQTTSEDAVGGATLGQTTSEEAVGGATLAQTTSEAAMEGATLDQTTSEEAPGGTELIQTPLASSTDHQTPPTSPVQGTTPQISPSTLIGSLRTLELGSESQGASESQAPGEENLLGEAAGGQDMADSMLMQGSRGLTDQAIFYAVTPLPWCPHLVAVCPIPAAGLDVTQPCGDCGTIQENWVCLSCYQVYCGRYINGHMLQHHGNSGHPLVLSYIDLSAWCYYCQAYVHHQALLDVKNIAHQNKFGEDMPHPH

| SMILES | IC50 (HDAC6) [nM] | HDAC1 fold over HDAC6 IC50 (selectivity for HDAC6) (HDAC1) | IC50 (HDAC1) [nM] | HDAC2 fold over HDAC6 IC50 (selectivity for HDAC6) (HDAC2) | IC50 (HDAC2) [nM] | HDAC3 fold over HDAC6 IC50 (selectivity for HDAC6) (HDAC3) | IC50 (HDAC3) [nM] |
| --- | --- | --- | --- | --- | --- | --- | --- |
| Cc1cc(C)cc(Nc2ncc(C(=O)NO)cn2)c1 [Compound 19] | 4 | (69.1x) | 251 | (131.7x) | 478 | (88x) | 319 |
| O=C(NO)c1cnc(Nc2c(Cl)cccc2Cl)nc1 [Compound 20] | 864 | (12.3x | 10600 | (20.1x) | 17300 | (18.9x) | 16300 |
| COc1cc(Nc2ncc(C(=O)NO)cn2)cc(C(F)(F)F)c1 [Compound 21] | 5 | (46x) | 241 | (100.3x) | 526 | (92.2x) | 484 |
| O=C(NO)c1cnc(Nc2cccc(C(F)(F)F)c2)nc1 [Compound 22] | 3 | (83.1x) | 222 | (166.7x) | 446 | (117x) | 313 |
| COc1cc(Nc2ncc(C(=O)NO)cn2)cc(OC)c1 [Compound 23] | 3 | (60.4x) | 155 | (134x) | 343 | (100.2x) | 257 |
| Cc1cc(F)cc(Nc2ncc(C(=O)NO)cn2)c1 [Compound 24] | 5 | (26x) | 133 | (50.9x) | 261 | (37.6x) | 193 |
| O=C(NO)c1cnc(Nc2cc(Cl)cc(C(F)(F)F)c2)nc1 [Compound 25] | 10 | (50.9x) | 516 | (92.6x) | 938 | (81.9x) | 830 |
| O=C(NO)c1cnc(Nc2cc(F)cc(C(F)(F)F)c2)nc1 [Compound 26] | 5 | (31.4x) | 159 | (68.3x) | 345 | (53.4x) | 270 |
| O=C(NO)c1cnc(Nc2cc(Cl)cc(OC(F)(F)F)c2)nc1 [Compound 27] | 7 | (63.5x) | 417 | (106.6x) | 700 | (113.5x) | 745 |
| O=C(NO)c1cnc(Nc2cccc(-c3ccccc3)c2)nc1 [Compound 28] | 4 | (30.7x) | 111 | (51.5x) | 187 | (50.1x) | 181 |
| O=C(NO)c1cnc(Nc2cccc(N3CCOCC3)c2)nc1 [Compound 29] | 8 | (60.9x) | 464 | (106x) | 808 | (68.2x) | 520 |
| O=C(NO)c1cnc(Nc2cccc(-c3ccncc3)c2)nc1 [Compound 30] | 3 | (27.5x) | 88 | (56.5x) | 181 | (44.1x) | 141 |
| Cc1cc(Nc2ncc(C(=O)NO)cn2)ccn1 [Compound 31] | 10 | (19.8x) | 206 | (34.7x) | 362 | (21.1x) | 221 |
| O=C(NO)c1cnc(NCc2ccccc2Cl)nc1 [Compound 33] | 2 | (56.4x) | 110 | (116.2x) | 226 | (86.7x) | 169 |
| O=C(NO)c1cnc(NCc2cccc(Cl)c2)nc1 [Compound 34] | 1 | (15.5x) | 20 | (21.5x) | 28 | (25.7x) | 34 |
| O=C(NO)c1cnc(NCc2ccccc2)nc1 [Compound 35] | 2 | (42.3x) | 77 | (76.2x) | 140 | (70x) | 128 |
| O=C(NO)c1cnc(NCc2ccc(Cl)cc2)nc1 [Compound 36] | 2 | (17.5x) | 40 | (31.2x) | 71 | (33x) | 75 |
| O=C(NO)c1cnc(NCc2ccc(C(F)(F)F)cc2)nc1 [Compound 37] | 5 | (17.8x) | 89 | (25.4x) | 127 | (29.8x) | 149 |
| O=C(NO)c1cnc(NCc2ccccc2C(F)(F)F)nc1 [Compound 38] | 7 | (67.5x) | 470 | (103.5x) | 720 | (128.1x) | 891 |
| O=C(NO)c1cnc(NCCc2ccccc2Cl)nc1 [Compound 39] | 4 | (62.6x) | 263 | (92.2x) | 387 | (117.9x) | 495 |
| O=C(NO)c1cnc(NCc2cccc(C(F)(F)F)c2)nc1 [Compound 40] | 2 | (19.8x) | 38 | (28.7x) | 56 | (36.2x) | 70 |
| O=C(NO)c1cnc(NCCc2cccc(Cl)c2)nc1 [Compound 42] | 4 | (19.5x) | 78 | (24.1x) | 97 | (32.3x) | 130 |
| O=C(NO)c1cnc(NCCc2c[nH]c3ccccc23)nc1 [Compound 43] | 4 | (22.8x) | 90 | (30.3x) | 120 | (27.1x) | 107 |
